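These data come from cells grown in 96-well plates and exposed to compound for 48 hours at five concentrations. The concentration for 50% growth inhibition is given as GI50.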 The source made the active and inactive calls. No stated cut-off is given here; in the data, active = GI50 up to about 1.1 µM and inactive = higher.
How the values were obtained:
Assay in all cases: NCI tumour cell line growth inhibition, 48 h
786-0 = test system: 786-0
NCI-H226 = test system: NCI-H226
HCT-15 = test system: HCT-15
SF-539 = test system: SF-539
SF-295 = test system: SF-295
SW-620 = test system: SW-620
MCF7 = test system: MCF7
CCRF-CEM = test system: CCRF-CEM
UACC-257 = test system: UACC-257
CAKI-1 = test system: CAKI-1
COLO 205 = test system: COLO 205
MOLT-4 = test system: MOLT-4
U-251 = test system: U-251
NCI-H522 = test system: NCI-H522
IGROV-1 = test system: IGROV-1
HOP-62 = test system: HOP-62
MDA-MB-435 = test system: MDA-MB-435
SF-268 = test system: SF-268
NCI-H23 = test system: NCI-H23
NCI/ADR-RES = test system: NCI/ADR-RES

Cn1cnc([N+](=O)[O-])c1Sc1nnc(-c2cccnc2)n1C was tested, and the GI50 (786-0) was 18.5 µM (inactive), the GI50 (NCI-H226) was > 66.4 µM (inactive) and the GI50 (HCT-15) was 17.2 µM. For the same molecule, the GI50 (SF-539) was 22.2 µM (inactive), the GI50 (SF-295) was > 100 µM (inactive) and the GI50 (SW-620) was 14.7 µM (inactive). The GI50 (MCF7) was 23.8 µM (inactive), the GI50 (CCRF-CEM) was 15.5 µM (inactive) and the GI50 (UACC-257) was 13.9 µM (inactive). The GI50 (CAKI-1) was 25.4 µM (inactive), the GI50 (COLO 205) was 15.3 µM (inactive) and the GI50 (MOLT-4) was 18.2 µM (inactive). For the same molecule, the GI50 (U-251) was 43.6 µM (inactive), the GI50 (NCI-H522) was 5.78 µM (inactive) and the GI50 (IGROV-1) was 68.5 µM (inactive). For the same molecule, the GI50 (HOP-62) was > 91.6 µM (inactive), the GI50 (MDA-MB-435) was 14.9 µM (inactive) and the GI50 (SF-268) was 36.2 µM (inactive). For the same molecule, the GI50 (NCI-H23) was 23.1 µM (inactive) and the GI50 (NCI/ADR-RES) was 46.6 µM (inactive).

Source: ChEMBL document CHEMBL1201862, “PubChem BioAssay data set” (2004)
